Data: ChEMBL document CHEMBL4043290, “Structure-based Design of Pyridone-Aminal eFT508 Targeting Dysregulated Translation by Selective Mitogen-activated Protein Kinase Interacting Kinases 1 and 2 (MNK1/2) Inhibition” (J Med Chem, 2018)

What was measured:
[1] = molecular target: MAP kinase-interacting serine/threonine-protein kinase 1 (Homo sapiens, UniProt Q9BUB5)
[2] = molecular target: MAP kinase-interacting serine/threonine-protein kinase 2 (Homo sapiens, UniProt Q9HBH9)
[3] = molecular target: MAP kinase-interacting serine/threonine-protein kinase 1/2 (Homo sapiens, UniProt Q9HBH9+Q9BUB5)
[4] = molecular target: T1, Serine/threonine-protein kinase 17A (Homo sapiens) (UniProt Q9UEE5); test: Inhibition of DRAK1 (unknown origin) at 1 uM relative to control
T1 sequence (whole entry): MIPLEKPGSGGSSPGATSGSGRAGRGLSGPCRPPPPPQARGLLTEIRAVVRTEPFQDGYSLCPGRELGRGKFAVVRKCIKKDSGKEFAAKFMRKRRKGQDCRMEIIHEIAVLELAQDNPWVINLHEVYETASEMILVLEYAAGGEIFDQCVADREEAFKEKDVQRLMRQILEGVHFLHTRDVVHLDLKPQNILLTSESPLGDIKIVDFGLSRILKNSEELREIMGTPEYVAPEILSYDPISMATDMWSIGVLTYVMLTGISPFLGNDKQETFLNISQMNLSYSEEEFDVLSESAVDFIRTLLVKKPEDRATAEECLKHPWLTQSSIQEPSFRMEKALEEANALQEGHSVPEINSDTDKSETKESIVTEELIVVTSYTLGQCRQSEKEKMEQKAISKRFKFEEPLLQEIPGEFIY

[5] = Metabolic stability in rat liver microsomes assessed as parent compound remaining at 1 uM after 30 mins by LC-ESI-TOF/MS method; assay type: ADME, microsome; details: read-out: Stability
[6] = molecular target: Vascular endothelial growth factor receptor 2 (Homo sapiens) (UniProt P35968); test: Inhibition of KDR (unknown origin) at 1 uM relative to control
[7] = Metabolic stability in human liver microsomes assessed as parent compound remaining at 1 uM after 30 mins by LC-ESI-TOF/MS method; assay type: ADME, microsome; details: read-out: Stability
in vitro = details: human, Caco-2
physchem = details: octanol/water
[8] = Metabolic stability in mouse liver microsomes assessed as parent compound remaining at 1 uM after 30 mins by LC-ESI-TOF/MS method; assay type: ADME, microsome; details: read-out: Stability
[9] = Oral bioavailability in Beagle dog at 3 mg/kg by LC-ESI-TOF/MS or LC-ESI-MS/MS method; assay type: ADME, organism-based, Canis lupus familiaris; details: in vivo
[10] = Oral bioavailability in cynomolgus monkey at 3 mg/kg by LC-ESI-TOF/MS or LC-ESI-MS/MS method; assay type: ADME, organism-based, Macaca fascicularis; details: in vivo
[11] = molecular target: Dual specificity tyrosine-phosphorylation-regulated kinase 2 (Homo sapiens) (UniProt Q92630); test: Inhibition of DYRK2 (unknown origin) at 1 uM relative to control
[12] = Oral bioavailability in Sprague-Dawley rat at 10 mg/kg by LC-ESI-TOF/MS or LC-ESI-MS/MS method; assay type: ADME, organism-based; details: in vivo
[13] = molecular target: T2, Serine/threonine-protein kinase BRSK1 (Homo sapiens) (UniProt Q8TDC3); test: Inhibition of BRSK1 (unknown origin) at 1 uM relative to control
T2 sequence (whole entry): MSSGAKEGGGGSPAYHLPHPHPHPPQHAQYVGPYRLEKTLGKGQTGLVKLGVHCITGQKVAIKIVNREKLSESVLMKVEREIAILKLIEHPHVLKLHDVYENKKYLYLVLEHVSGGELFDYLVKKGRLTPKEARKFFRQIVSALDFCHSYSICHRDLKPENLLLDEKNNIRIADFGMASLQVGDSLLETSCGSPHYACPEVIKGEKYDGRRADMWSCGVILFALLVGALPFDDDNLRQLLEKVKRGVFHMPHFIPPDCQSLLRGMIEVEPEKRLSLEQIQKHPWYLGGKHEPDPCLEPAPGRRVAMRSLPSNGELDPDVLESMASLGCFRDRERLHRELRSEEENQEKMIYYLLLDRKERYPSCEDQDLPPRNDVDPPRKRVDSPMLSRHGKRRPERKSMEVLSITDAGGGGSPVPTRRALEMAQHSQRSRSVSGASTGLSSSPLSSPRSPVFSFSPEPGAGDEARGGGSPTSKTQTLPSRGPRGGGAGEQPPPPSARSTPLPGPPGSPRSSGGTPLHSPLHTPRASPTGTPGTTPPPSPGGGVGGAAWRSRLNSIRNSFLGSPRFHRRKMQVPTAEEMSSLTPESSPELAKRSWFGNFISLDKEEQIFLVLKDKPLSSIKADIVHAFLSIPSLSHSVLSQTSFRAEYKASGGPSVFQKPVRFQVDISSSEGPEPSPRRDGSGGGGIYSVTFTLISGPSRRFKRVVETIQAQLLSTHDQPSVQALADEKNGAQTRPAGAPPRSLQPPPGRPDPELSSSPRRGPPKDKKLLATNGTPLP

[14] = Oral bioavailability in Balb/c mouse at 10 mg/kg by LC-ESI-TOF/MS or LC-ESI-MS/MS method; assay type: ADME, organism-based; details: in vivo
PC-3 = test: Antiproliferative activity against human PC3 cells after 72 hrs by CellTiter-Glo assay; assay type: functional, cell-based; details: PC-3, 72 h
[15] = molecular target: Receptor-type tyrosine-protein kinase FLT3 (Homo sapiens) (UniProt P36888); test: Inhibition of FLT3 (unknown origin) at 1 uM relative to control
SW-620 = test: Antiproliferative activity against human SW620 cells after 72 hrs by CellTiter-Glo assay; assay type: functional, cell-based; details: SW-620, 72 h
HCT-116 = test: Antiproliferative activity against human HCT116 cells after 72 hrs by CellTiter-Glo assay; assay type: functional, cell-based; details: HCT-116, 72 h
[16] = molecular target: Proto-oncogene tyrosine-protein kinase receptor Ret (Homo sapiens) (UniProt P07949); test: Inhibition of RET (unknown origin) at 1 uM relative to control
[17] = molecular target: Tyrosine-protein kinase ABL1 (Homo sapiens) (UniProt P00519); test: Inhibition of Abl1 (unknown origin) at 1 uM relative to control
[18] = molecular target: High affinity nerve growth factor receptor (Homo sapiens) (UniProt P04629); test: Inhibition of TRKA (unknown origin) at 1 uM relative to control
[19] = molecular target: Calcium/calmodulin-dependent protein kinase type II subunit alpha (Homo sapiens) (UniProt Q9UQM7); test: Inhibition of CAMK2A (unknown origin) at 1 uM relative to control
[20] = molecular target: Rho-associated protein kinase 1 (Homo sapiens) (UniProt Q13464); test: Inhibition of ROCK1 (unknown origin) at 1 uM relative to control
[21] = molecular target: Dual specificity protein kinase CLK1 (Homo sapiens) (UniProt P49759); test: Inhibition of CLK1 (unknown origin) at 1 uM relative to control
[22] = molecular target: Ribosomal protein S6 kinase alpha-1 (Homo sapiens) (UniProt Q15418); test: Inhibition of RSK1 (unknown origin) at 1 uM relative to control
[23] = molecular target: 5'-AMP-activated protein kinase subunit beta-1 (Homo sapiens) (UniProt Q9Y478); test: Inhibition of AMPKB1 (unknown origin) at 1 uM relative to control
[24] = molecular target: Interleukin-1 receptor-associated kinase 1 (Homo sapiens) (UniProt P51617); test: Inhibition of IRAK1 (unknown origin) at 1 uM relative to control
[25] = molecular target: Cyclin-dependent kinase 2 (Homo sapiens) (UniProt P24941); test: Inhibition of CDK2 (unknown origin) at 1 uM relative to control
[26] = molecular target: 5'-AMP-activated protein kinase catalytic subunit alpha-1 (Homo sapiens) (UniProt Q13131); test: Inhibition of AMPKA1 (unknown origin) at 1 uM relative to control
[27] = molecular target: Serine/threonine-protein kinase pim-1 (Homo sapiens) (UniProt P11309); test: Inhibition of PIM1 (unknown origin) at 1 uM relative to control
[28] = molecular target: Dual specificity mitogen-activated protein kinase kinase 2 (Homo sapiens) (UniProt P36507); test: Inhibition of MEK2 (unknown origin) at 1 uM relative to control
[29] = molecular target: Serine/threonine-protein kinase B-raf (Homo sapiens) (UniProt P15056); test: Inhibition of BRAF (unknown origin) at 1 uM relative to control
[30] = molecular target: 5'-AMP-activated protein kinase subunit gamma-1 (Homo sapiens) (UniProt P54619); test: Inhibition of AMPKG1 (unknown origin) at 1 uM relative to control
[31] = molecular target: Platelet-derived growth factor receptor beta (Homo sapiens) (UniProt P09619); test: Inhibition of PDGFRB (unknown origin) at 1 uM relative to control
[32] = molecular target: Dual specificity tyrosine-phosphorylation-regulated kinase 1A (Homo sapiens) (UniProt Q13627); test: Inhibition of DYRK1A (unknown origin) at 1 uM relative to control
[33] = molecular target: Platelet-derived growth factor receptor alpha (Homo sapiens) (UniProt P16234); test: Inhibition of PDGFRA (unknown origin) at 1 uM relative to control
[34] = molecular target: Aurora kinase A (Homo sapiens) (UniProt O14965); test: Inhibition of aurora A (unknown origin) at 1 uM relative to control
[35] = molecular target: Tyrosine-protein kinase Lck (Homo sapiens) (UniProt P06239); test: Inhibition of LCK (unknown origin) at 1 uM relative to control
[36] = molecular target: Tyrosine-protein kinase Yes (Homo sapiens) (UniProt P07947); test: Inhibition of YES1 (unknown origin) at 1 uM relative to control

Chain of MAP kinase-interacting serine/threonine-protein kinase 2 (Q9HBH9 whole entry): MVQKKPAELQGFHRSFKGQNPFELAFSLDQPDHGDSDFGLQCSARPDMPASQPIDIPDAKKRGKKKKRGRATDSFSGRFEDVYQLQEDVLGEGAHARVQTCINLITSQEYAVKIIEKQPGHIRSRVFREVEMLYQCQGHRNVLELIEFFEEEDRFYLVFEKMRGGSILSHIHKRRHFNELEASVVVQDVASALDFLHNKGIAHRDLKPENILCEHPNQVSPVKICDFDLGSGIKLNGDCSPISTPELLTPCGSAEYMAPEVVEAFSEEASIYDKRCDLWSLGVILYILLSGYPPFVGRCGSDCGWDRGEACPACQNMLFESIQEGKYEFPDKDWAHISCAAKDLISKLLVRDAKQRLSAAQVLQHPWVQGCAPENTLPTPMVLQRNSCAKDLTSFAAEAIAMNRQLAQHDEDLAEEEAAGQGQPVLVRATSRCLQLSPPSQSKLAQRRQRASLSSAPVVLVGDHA
Chain of Vascular endothelial growth factor receptor 2 (Homo sapiens) (P35968 whole entry): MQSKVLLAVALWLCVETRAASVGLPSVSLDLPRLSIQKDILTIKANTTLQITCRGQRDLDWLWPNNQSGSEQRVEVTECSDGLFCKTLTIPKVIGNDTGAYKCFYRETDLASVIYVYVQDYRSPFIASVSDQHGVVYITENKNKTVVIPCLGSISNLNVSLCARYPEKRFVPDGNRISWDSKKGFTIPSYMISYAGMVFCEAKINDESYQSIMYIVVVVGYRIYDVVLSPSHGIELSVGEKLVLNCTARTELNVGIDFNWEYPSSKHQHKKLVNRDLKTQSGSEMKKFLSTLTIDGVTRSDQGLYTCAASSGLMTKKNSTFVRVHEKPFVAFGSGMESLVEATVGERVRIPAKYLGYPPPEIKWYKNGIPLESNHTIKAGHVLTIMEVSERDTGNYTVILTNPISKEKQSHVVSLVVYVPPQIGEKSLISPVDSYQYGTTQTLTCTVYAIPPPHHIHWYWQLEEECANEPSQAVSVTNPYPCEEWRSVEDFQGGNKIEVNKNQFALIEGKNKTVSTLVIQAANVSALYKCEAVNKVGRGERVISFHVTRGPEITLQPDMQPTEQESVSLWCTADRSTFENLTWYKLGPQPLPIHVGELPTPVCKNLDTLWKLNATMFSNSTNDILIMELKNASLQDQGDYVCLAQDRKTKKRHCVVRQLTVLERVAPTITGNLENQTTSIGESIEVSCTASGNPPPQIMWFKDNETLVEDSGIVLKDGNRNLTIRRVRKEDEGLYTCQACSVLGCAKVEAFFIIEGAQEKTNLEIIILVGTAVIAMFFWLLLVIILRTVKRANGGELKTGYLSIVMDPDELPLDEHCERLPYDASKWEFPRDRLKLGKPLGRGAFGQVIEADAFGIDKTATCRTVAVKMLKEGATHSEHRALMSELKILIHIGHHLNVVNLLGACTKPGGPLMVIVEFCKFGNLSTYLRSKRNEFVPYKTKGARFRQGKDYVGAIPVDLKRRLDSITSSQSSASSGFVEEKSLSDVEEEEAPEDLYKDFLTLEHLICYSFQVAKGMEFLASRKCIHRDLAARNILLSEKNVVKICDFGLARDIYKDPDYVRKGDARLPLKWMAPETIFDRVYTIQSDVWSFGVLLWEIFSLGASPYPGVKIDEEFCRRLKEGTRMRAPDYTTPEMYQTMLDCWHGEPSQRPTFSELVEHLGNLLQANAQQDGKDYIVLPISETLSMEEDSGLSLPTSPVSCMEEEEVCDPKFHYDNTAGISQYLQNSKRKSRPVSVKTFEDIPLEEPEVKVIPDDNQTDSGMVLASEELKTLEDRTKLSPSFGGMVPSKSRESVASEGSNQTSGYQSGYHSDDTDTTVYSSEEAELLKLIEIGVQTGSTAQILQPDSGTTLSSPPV
Chain of MAP kinase-interacting serine/threonine-protein kinase 1 (Q9BUB5 whole entry): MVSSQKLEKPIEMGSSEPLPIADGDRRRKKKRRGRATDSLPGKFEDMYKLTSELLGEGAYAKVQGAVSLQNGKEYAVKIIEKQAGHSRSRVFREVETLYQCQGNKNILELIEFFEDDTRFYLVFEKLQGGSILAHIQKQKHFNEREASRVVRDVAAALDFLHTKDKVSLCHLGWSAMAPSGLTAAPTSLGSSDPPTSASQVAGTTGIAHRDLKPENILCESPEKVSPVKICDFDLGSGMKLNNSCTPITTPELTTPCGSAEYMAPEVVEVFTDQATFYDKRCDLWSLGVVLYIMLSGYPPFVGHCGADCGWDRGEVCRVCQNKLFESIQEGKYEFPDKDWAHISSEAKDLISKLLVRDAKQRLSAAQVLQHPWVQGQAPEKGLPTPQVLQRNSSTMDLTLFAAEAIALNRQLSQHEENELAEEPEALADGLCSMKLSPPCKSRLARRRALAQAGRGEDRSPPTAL
Chain of Receptor-type tyrosine-protein kinase FLT3 (Homo sapiens) (P36888 whole entry): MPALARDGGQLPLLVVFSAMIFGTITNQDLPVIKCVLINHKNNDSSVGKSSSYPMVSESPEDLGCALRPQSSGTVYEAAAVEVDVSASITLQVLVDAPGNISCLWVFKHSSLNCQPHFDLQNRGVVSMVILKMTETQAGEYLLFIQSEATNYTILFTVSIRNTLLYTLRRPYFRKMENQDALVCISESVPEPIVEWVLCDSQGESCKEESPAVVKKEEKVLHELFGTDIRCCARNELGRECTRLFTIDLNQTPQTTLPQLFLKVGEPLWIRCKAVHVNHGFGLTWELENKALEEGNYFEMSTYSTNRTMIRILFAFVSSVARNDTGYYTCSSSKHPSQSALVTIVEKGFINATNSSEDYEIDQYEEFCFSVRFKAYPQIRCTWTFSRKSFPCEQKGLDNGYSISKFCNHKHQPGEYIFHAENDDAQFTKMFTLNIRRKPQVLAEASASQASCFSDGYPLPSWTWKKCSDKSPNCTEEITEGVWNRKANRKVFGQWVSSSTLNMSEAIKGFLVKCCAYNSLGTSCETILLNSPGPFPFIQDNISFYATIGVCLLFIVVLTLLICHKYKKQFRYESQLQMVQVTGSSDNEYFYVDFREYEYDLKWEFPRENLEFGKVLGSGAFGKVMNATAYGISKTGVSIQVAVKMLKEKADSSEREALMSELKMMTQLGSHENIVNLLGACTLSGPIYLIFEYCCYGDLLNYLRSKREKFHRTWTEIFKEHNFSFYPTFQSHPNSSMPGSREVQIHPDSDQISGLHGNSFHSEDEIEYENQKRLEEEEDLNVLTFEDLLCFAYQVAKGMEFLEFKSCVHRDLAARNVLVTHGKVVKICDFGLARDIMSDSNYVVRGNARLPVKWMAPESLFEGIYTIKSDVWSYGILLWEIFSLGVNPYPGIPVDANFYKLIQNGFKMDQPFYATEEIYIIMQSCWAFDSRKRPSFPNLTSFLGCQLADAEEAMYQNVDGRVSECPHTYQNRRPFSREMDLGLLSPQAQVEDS
Chain of Proto-oncogene tyrosine-protein kinase receptor Ret (Homo sapiens) (P07949 whole entry): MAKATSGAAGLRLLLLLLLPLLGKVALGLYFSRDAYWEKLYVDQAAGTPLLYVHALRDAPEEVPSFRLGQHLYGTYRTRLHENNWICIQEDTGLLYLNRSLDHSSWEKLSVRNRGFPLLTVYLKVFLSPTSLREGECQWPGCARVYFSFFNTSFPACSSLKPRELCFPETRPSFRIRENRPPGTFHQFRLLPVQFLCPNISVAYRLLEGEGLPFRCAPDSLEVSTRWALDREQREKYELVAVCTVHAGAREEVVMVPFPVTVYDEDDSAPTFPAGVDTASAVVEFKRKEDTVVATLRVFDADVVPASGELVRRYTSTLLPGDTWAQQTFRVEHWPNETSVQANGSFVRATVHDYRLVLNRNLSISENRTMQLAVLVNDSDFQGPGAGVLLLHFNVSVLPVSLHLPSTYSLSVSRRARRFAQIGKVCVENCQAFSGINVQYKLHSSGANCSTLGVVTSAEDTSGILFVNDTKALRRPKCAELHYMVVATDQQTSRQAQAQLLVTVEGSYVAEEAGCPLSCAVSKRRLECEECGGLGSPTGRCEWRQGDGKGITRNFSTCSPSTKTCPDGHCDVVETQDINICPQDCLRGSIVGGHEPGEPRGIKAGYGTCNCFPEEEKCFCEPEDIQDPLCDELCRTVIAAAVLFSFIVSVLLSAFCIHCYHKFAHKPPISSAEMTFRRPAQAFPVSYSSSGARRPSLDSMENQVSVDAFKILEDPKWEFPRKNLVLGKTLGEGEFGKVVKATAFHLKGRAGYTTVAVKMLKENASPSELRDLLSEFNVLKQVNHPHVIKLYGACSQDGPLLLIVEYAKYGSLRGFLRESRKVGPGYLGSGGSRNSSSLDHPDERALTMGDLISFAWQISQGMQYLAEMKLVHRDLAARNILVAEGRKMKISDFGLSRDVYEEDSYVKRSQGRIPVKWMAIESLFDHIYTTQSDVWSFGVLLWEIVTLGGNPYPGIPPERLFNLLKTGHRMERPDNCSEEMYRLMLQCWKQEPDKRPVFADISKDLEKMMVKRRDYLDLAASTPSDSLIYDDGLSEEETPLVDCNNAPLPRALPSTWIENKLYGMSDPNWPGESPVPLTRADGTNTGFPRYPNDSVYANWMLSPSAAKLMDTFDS
Chain of Calcium/calmodulin-dependent protein kinase type II subunit alpha (Homo sapiens) (Q9UQM7 whole entry): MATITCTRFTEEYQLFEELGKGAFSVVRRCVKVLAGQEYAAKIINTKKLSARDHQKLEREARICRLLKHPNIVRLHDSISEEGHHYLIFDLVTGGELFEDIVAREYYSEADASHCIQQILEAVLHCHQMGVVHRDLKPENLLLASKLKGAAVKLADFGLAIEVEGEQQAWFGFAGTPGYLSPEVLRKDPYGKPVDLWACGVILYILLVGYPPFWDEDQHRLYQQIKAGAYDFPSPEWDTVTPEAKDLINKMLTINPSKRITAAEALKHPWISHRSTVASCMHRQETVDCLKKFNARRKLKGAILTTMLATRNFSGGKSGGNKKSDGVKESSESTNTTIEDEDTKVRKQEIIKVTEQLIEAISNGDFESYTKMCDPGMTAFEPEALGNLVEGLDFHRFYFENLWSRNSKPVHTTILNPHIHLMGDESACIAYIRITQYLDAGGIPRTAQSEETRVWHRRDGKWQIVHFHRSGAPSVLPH

With c1cc(-c2cc(C3CCNCC3)[nH]n2)ccn1 the IC50 [1] was 5500 nM.

For c1ccc(-c2n[nH]c3ccc(-c4ccncc4)cc23)cc1, the IC50 [1] was 3800 nM.

With O=C1NCc2cc(Nc3ncnc4[nH]cnc34)ccc21 the IC50 [1] was 23 nM.

For O=C1NCc2cc(Nc3cc(NC(=O)C4CC4)ncn3)ccc21, the IC50 [2] was 5.7 nM, the IC50 [3] was 430 nM and the IC50 [1] was 1.9 nM.

CC1(C)NC(=O)c2c(Cl)cc(Nc3cc(N)ncn3)c(=O)n21 gave an inhibition [4] of 88%, a remaining at 0.5 h, 1 µM [5] of 100% and an inhibition [6] of 74%. For the same compound, the remaining at 0.5 h, 1 µM [7] was 100%, the Papp A→B at 2 h, 5 µM (in vitro) was 0.9 ×10⁻⁶ cm/s and the logP (physchem) was 1.8. For the same compound, the remaining at 0.5 h, 1 µM [8] was 95%, the bioavailability [9] was greater than 100% and the bioavailability [10] was 54%. The inhibition [11] was 67%, the bioavailability [12] was 50% and the inhibition [13] was 52%. The bioavailability [14] was 79%.

Nc1ncnc(Nc2cc(Cl)c3n(c2=O)C2(CCCCC2)NC3=O)c1Cl gave an IC50 [2] of 0.36 nM and an IC50 [3] of 0.084 nM.

For CC1NC(=O)c2ccc(Nc3ccncn3)cc21 (stereo not given), the IC50 [2] was 45 nM, the IC50 [3] was 28000 nM and the IC50 [1] was 28 nM.

NC(=O)c1ccc(Nc2ncnc3[nH]cnc23)cc1 showed an IC50 [1] of 60 nM.

Compound c1cnn2c(-c3ccncc3)cnc2c1 has an IC50 [1] of 1800 nM.

In the case of NC(=O)c1ccc(Nc2ccncn2)c(=O)[nH]1, the IC50 [1] is reported as 3000 nM.

Work on Cc1cc(Nc2cc(N)ncn2)c(=O)n2c1C(=O)NC21CCC(F)(F)CC1 yielded an inhibition [4] of 68%, a remaining at 0.5 h, 1 µM [5] of 100% and a remaining at 0.5 h, 1 µM [7] of 97%. The remaining at 0.5 h, 1 µM [8] was 99%, the bioavailability [9] was greater than 100% and the bioavailability [10] was 58%. The IC50 [1] was 1.4 nM, the bioavailability [12] was 56% and the bioavailability [14] was 85%.

For CC1(C)NC(=O)c2ccc(Nc3cc(NC(=O)C4CC4)ncn3)c(=O)n21, the inhibition [6] was 4%, the EC50 (PC-3) was greater than 30000 nM and the inhibition [15] was 4%. The EC50 (SW-620) was greater than 30000 nM, the EC50 (HCT-116) was greater than 30000 nM and the inhibition [16] was 4%. The inhibition [17] was 4%.

Work on NC(=O)c1ccc(Nc2ccncn2)cc1 yielded an IC50 [1] of 690 nM.

NC(=O)c1cccn2c(-c3cccnc3)cnc12 gave an IC50 [1] of 6400 nM.

For CC1(C)NC(=O)c2ccc(Nc3ccncn3)cc21, the IC50 [2] was 61 nM, the IC50 [3] was 4400 nM and the IC50 [1] was 100 nM.

Compound N[C@H]1C[C@H](Oc2ccc3ncc(-c4ccc5cnccc5c4)n3n2)C1 has an inhibition [18] of 17%, an inhibition [19] of 17% and an IC50 [2] of 7.8 nM. It also gave an inhibition [20] of 17%, an inhibition [21] of 17% and an inhibition [22] of 17%. For the same compound, the inhibition [23] was 17%, the inhibition [6] was 17% and the EC50 (PC-3) was 590 nM. The inhibition [15] was 17%, the inhibition [24] was 17% and the inhibition [25] was 17%. It also gave an IC50 [3] of 120 nM, an inhibition [26] of 17% and an inhibition [27] of 17%. It also gave an inhibition [28] of 17%, an inhibition [29] of 17% and an inhibition [30] of 17%. For the same compound, the IC50 [1] was 1.5 nM, the EC50 (SW-620) was 310 nM and the inhibition [31] was 17%. It also gave an EC50 (HCT-116) of 210 nM, an inhibition [32] of 17% and an inhibition [33] of 17%.

For Cc1n[nH]c(C)c1-c1ccc(C2CCCN2)cc1 (stereo not given), the IC50 [1] was 4700 nM.

CC1(c2cccc(Cl)c2)NC(=O)c2c(Cl)cc(Nc3cc(NC(=O)C4CC4)ncn3)c(=O)n21 (stereo not given) gave an inhibition [6] of 10%, an inhibition [15] of 10% and an inhibition [34] of 10%. For the same compound, the EC50 (SW-620) was 2800 nM, the inhibition [31] was 10% and the EC50 (HCT-116) was 2700 nM. It also gave an inhibition [35] of 10%, an inhibition [16] of 10% and an inhibition [17] of 10%. It also gave an inhibition [32] of 10%, an inhibition [33] of 10% and an inhibition [36] of 10%.
